Here are results for 4 compounds from the NIST ThermoML archive (doi:10.1021/je300507h).

Numbers after ± are expanded uncertainties.

The conditions of the series: 101.33 kPa, Liquid; for viscosity: Capillary tube (Ostwald / Ubbelohde) method; for electrical conductivity: Wayne-Kerr 6430B Autobalance Bridge electrode.

For `CCC(=O)[O-].CCCC[n+]1ccn(C)c1` [3-butyl-1-methyl-1H-imidazolium propanoate], the viscosity by setting is: (303.15 K) 325.7 ± 14 mPa·s; (313.15 K) 171.5 ± 5.2 mPa·s; (323.15 K) 99.27 ± 1.9 mPa·s; (333.15 K) 61.78 ± 0.72 mPa·s; (343.15 K) 40.75 ± 0.51 mPa·s. For the same compound, the electrical conductivity came out at 0.0703 ± 0.00071 S/m (303.15 K); 0.0902 ± 0.00091 S/m (308.15 K); 0.1201 ± 0.0012 S/m (313.15 K); 0.156 ± 0.0016 S/m (318.15 K); 0.198 ± 0.002 S/m (323.05 K); 0.248 ± 0.0025 S/m (328.15 K). Also, the electrical conductivity is, setting by setting: (333.15 K) 0.306 ± 0.0031 S/m; (338.15 K) 0.3716 ± 0.0037 S/m; (343.15 K) 0.447 ± 0.0045 S/m.

With `CCCC[n+]1ccn(C)c1.O=C[O-]` [3-butyl-1-methyl-1H-imidazolium formate], the viscosity is, setting by setting: (303.15 K) 138.5 ± 3.4 mPa·s; (313.15 K) 80.53 ± 1.3 mPa·s; (323.15 K) 50.78 ± 0.53 mPa·s; (333.15 K) 34 ± 0.37 mPa·s; (343.15 K) 23.94 ± 0.27 mPa·s. For the same compound, the electrical conductivity reads like this: (303.15 K) 0.1909 ± 0.0019 S/m; (308.15 K) 0.249 ± 0.0025 S/m; (313.15 K) 0.319 ± 0.0032 S/m; (318.15 K) 0.4019 ± 0.004 S/m; (323.15 K) 0.498 ± 0.005 S/m; (328.15 K) 0.6125 ± 0.0061 S/m. Also, the electrical conductivity (333.15 K) stood at 0.738 ± 0.0074 S/m, the electrical conductivity (338.15 K) is 0.88 ± 0.0088 S/m and the electrical conductivity (343.15 K) turned out to be 1.04 ± 0.01 S/m.

For the compound `CC(=O)[O-].CCCCn1cc[n+](C)c1` [1-butyl-3-methylimidazolium acetate], the viscosity is, setting by setting: (303.15 K) 288.8 ± 12 mPa·s; (313.15 K) 149.9 ± 4.2 mPa·s; (323.15 K) 86.13 ± 1.5 mPa·s; (333.15 K) 53.43 ± 0.58 mPa·s; (343.15 K) 35.33 ± 0.44 mPa·s. The electrical conductivity (303.15 K) came to 0.0731 ± 0.00074 S/m; the electrical conductivity (308.15 K) worked out at 0.1014 ± 0.001 S/m; the electrical conductivity (313.15 K) is 0.136 ± 0.0014 S/m; the electrical conductivity (318.15 K) worked out at 0.178 ± 0.0018 S/m; the electrical conductivity (323.15 K) stood at 0.229 ± 0.0023 S/m; the electrical conductivity (328.15 K) stood at 0.2902 ± 0.0029 S/m. The electrical conductivity is, setting by setting: (333.15 K) 0.36 ± 0.0036 S/m; (338.15 K) 0.44 ± 0.0044 S/m; (343.15 K) 0.5319 ± 0.0053 S/m.

As to `CCCC(=O)[O-].CCCC[n+]1ccn(C)c1` [3-butyl-1-methyl-1H-imidazolium butanoate], the viscosity reads like this: (303.15 K) 364.3 ± 16 mPa·s; (313.15 K) 193.1 ± 6.3 mPa·s; (323.15 K) 111.6 ± 2.4 mPa·s; (333.15 K) 69.24 ± 0.9 mPa·s; (343.15 K) 45.43 ± 0.58 mPa·s. Besides, the electrical conductivity worked out at 0.04102 ± 0.00041 S/m (303.15 K); 0.0558 ± 0.00056 S/m (308.15 K); 0.0752 ± 0.00076 S/m (313.15 K); 0.0992 ± 0.001 S/m (318.15 K); 0.129 ± 0.0013 S/m (323.05 K); 0.165 ± 0.0017 S/m (328.15 K). Further, the electrical conductivity reads like this: (333.15 K) 0.208 ± 0.0021 S/m; (338.15 K) 0.258 ± 0.0026 S/m; (343.15 K) 0.315 ± 0.0032 S/m.

Usually viscosity stands for the internal friction of a fluid under shear.
